Series [1] concerns P. berghei-ANKA-GFP-LucCON liver stage parasites in HepG2-A16-CD81EGFP cells. The experiment in a line: P. berghei liver stage Pb-Luc assay, Method 1 (UCSD, 1536-well). The note with it: for AC50 / activity at 1 µM / activity at 3 µM: Plasmodium berghei; for activity at 1 µM / activity at 3 µM: 48 h, average of 2 wells on a 1536 well plate; for activity at 1 µM: 1 uM (compounds provided at 10 mM); for activity at 3 µM: 3 uM (compounds provided at 10 mM). It is filed as cell-based, Plasmodium berghei.

The nature of the next series: in vitro. The following applies: human, HepG2-A16-CD81EGFP cells, uninfected.
The test system of series [2] is Plasmodium falciparum Dd2 asexual blood stage parasites. Description: microbe, parasite or virus in culture. Further details: species or system Plasmodium falciparum Dd2 in human erythrocytes; single determination (one 11-point concentration-response curve). The following applies: Plasmodium falciparum, DD2, Erythrocyte, 72 h; read-out: AC50.
Where [3] appears, read: column 11, read-out: Pb-Luc (P. berghei liver stage), % of control, lower concentration, first repeat.
Where [4] appears, read: column 12, read-out: Pb-Luc (P. berghei liver stage), % of control, lower concentration, second repeat.
Setting [5] is: column 8, read-out: Pb-Luc (P. berghei liver stage), % of control, higher concentration, first repeat.
Where [6] appears, read: column 9, read-out: Pb-Luc (P. berghei liver stage), % of control, higher concentration, second repeat.

Read-outs that look alike come from different tables or passages of the source.

Broadly, the AC50 is the concentration at which the activity in the assay is half-maximal. The viability is a read-out of living cells in per cent, often relative to untreated cells. With `O=C(Nc1ccc(-c2csc(Nc3ccccc3)n2)cc1)c1cc([N+](=O)[O-])cc(C(F)(F)F)c1` [MLS000911606-01], the AC50 is 2820 nM in series [1] (Method 1, Hill fit, 50% of maximum activity response, read-out: AC50); 2820 nM in series [1] (Method 1, log10 of molar AC50 from Hill fit, read-out: Log AC50 (converted)); 2110 nM in series [2]. The viability at 66 h in “in vitro” stood at 104%.
Regarding `CCCOc1ccc(CCc2nnc(S)n2Cc2ccccc2)cc1` [MLS000562311-01], the values for the activity at 1 µM in series [1] (setting [3]) and in series [1] (setting [4]) were 157% and 149%, respectively. The figures for the activity at 3 µM in series [1] (setting [5]) and in series [1] (setting [6]) were 161% and 162%, respectively. In addition, the viability at 48 h, 1 µM in the series “in vitro” is 122%. For the same molecule, in “in vitro”, the viability at 48 h, 3 µM came out at 100%. In series [2], the half-maximal activity concentration (AC50) turned out to be 5310 nM.
Take `CCOC(=O)CCCCC(=O)c1[nH]c(=O)[nH]c1Cn1ccnc1` [MLS000092014-01]: the values for the activity at 1 µM in series [1] (setting [3]) and in series [1] (setting [4]) were 140% and 105%, respectively. Moreover, the activity at 3 µM in series [1] (setting [5]) came out at 84%; in series [1] (setting [6]), 105%. In addition, the viability at 48 h, 1 µM in the series “in vitro” was 98%. Besides, the viability at 48 h, 3 µM in the series “in vitro” came to 107%. Besides, in series [2], the AC50 worked out at 2660 nM.
On to `CCCSc1ccc([C@H]2N[C@@](Cc3ccccc3)(C(=O)OC)[C@H]3C(=O)N(CC)C(=O)[C@@H]23)cc1` [MLS001362807-01], for which the activity at 1 µM in series [1] (setting [3]) was found to be 115%; in series [1] (setting [4]), 102%. For the same molecule, the activity at 3 µM in series [1] (setting [5]) was determined as 124%; in series [1] (setting [6]) it was 103%. Besides, the viability at 48 h, 1 µM in the series “in vitro” was determined as 109%. For the same molecule, in the series “in vitro”, the viability at 48 h, 3 µM was 103%. For the same molecule, the concentration at half-maximal activity (AC50) in series [2] turned out to be 5310 nM.
Take `CCCc1cc(=O)oc2cc(C)cc(OCC(=O)Nc3ccccn3)c12` [MLS001160382-01]: the activity at 1 µM in series [1] (setting [3]) was 212%; in series [1] (setting [4]), 140%. The activity at 3 µM in series [1] (setting [5]) stood at 42%; in series [1] (setting [6]), 160%. Further, the viability at 48 h, 1 µM in “in vitro” is 97%. Further, the viability at 48 h, 3 µM in “in vitro” amounted to 111%. The AC50 in series [2] was determined as 2110 nM.
Regarding `COc1cc2ccccc2cc1C(=O)N1CC(C)CC(C)C1` (stereo not drawn) [MLS001129394-01], the activity at 1 µM in series [1] (setting [3]) turned out to be 125%; in series [1] (setting [4]), 114%. Further, the activity at 3 µM in series [1] (setting [5]) is 67%; in series [1] (setting [6]) it was 101%. Further, the viability at 48 h, 1 µM in the series “in vitro” came out at 108%. Further, the viability at 48 h, 3 µM in the series “in vitro” was found to be 98%. Moreover, the AC50 in series [2] is 2370 nM.
For the molecule `O=C(CN1CCN(C(=O)c2ccco2)CC1)Nc1cc(Cl)ccc1Cl` [MLS000122513-01], the “Max Resp (signal direction of the dose response)” value in series [1] (Method 1, Decrease = decreasing P. berghei viability with dose, Increase = increasing signal, Inactive = no dose response) is given as “Inactive”. In “in vitro”, the viability at 66 h stood at 97.6%. Further, the AC50 in series [2] is 5960 nM.
As for `CCOC(=O)c1c(NC(=O)c2ccccc2)sc2c(O)c(CN(CC)CC)ccc12` [MLS000523141-01], the activity at 1 µM amounted to 104% in series [1] (setting [3]) and 107% in series [1] (setting [4]). The activity at 3 µM in series [1] (setting [5]) worked out at 99%; in series [1] (setting [6]), 98%. For the same molecule, the viability at 48 h, 1 µM in “in vitro” is 91%. The viability at 48 h, 3 µM in the series “in vitro” stood at 102%. For the same molecule, the half-maximal activity concentration (AC50) in series [2] was 150 nM.
As for `CCCCCNc1nc2sc3c(c2c(=O)n1-c1cccc(Cl)c1)CCN(C)C3` [MLS000762913-01], the activity at 1 µM in series [1] (setting [3]) turned out to be 99%; in series [1] (setting [4]), 101%. Further, the activity at 3 µM in series [1] (setting [5]) amounted to 72%; in series [1] (setting [6]) it was 91%. The viability at 48 h, 1 µM in the series “in vitro” turned out to be 92%. Besides, in the series “in vitro”, the viability at 48 h, 3 µM was found to be 105%. Further, the concentration at half-maximal activity (AC50) in series [2] is 7500 nM.
With `COc1cc(O)c(C(CCN2CCCCC2)c2ccc3c(c2)OCO3)c(OC)c1` (stereo not drawn) [MLS000879495-01], the activity at 1 µM in series [1] (setting [3]) stood at 100%; in series [1] (setting [4]) it was 116%. For the same molecule, the activity at 3 µM was determined as 99% in series [1] (setting [5]) and 98% in series [1] (setting [6]). The viability at 48 h, 1 µM in “in vitro” amounted to 113%. The viability at 48 h, 3 µM in “in vitro” was found to be 94%. Moreover, the concentration at half-maximal activity (AC50) in series [2] was determined as 1330 nM.
Turning to `CCOc1ccc(NC(=O)CN2C(=O)NC(C)(c3ccc(OC(F)F)cc3)C2=O)cc1` (stereo not drawn) [MLS001193353-01], the results for the activity at 1 µM in series [1] (setting [3]) and in series [1] (setting [4]) were 120% and 108%, respectively. The values for the activity at 3 µM in series [1] (setting [5]) and in series [1] (setting [6]) were 48% and 87%, respectively. Moreover, in “in vitro”, the viability at 48 h, 1 µM was 109%. Besides, the viability at 48 h, 3 µM in “in vitro” is 103%. Besides, in series [2], the AC50 is 9440 nM.
Consider `Cc1ccc(/C=N/Nc2cc(C)nc(NCc3ccccc3)n2)cc1` [MLS000769291-01], for which the values for the activity at 1 µM in series [1] (setting [3]) and in series [1] (setting [4]) were 97% and 106%, respectively. In addition, the activity at 3 µM in series [1] (setting [5]) is 138%; in series [1] (setting [6]) it was 126%. Also, the viability at 48 h, 1 µM in “in vitro” was determined as 98%. Further, in the series “in vitro”, the viability at 48 h, 3 µM was 95%. Besides, the AC50 in series [2] stood at 5310 nM.
As to `CC(C)(C)CC(C)(C)c1ccc(O)c(CN2CCN(CCC#N)CC2)c1` [MLS000026875-01], the activity at 1 µM was found to be 129% in series [1] (setting [3]) and 117% in series [1] (setting [4]). In addition, the activity at 3 µM turned out to be 119% in series [1] (setting [5]) and 112% in series [1] (setting [6]). Further, the viability at 48 h, 1 µM in the series “in vitro” was determined as 112%. Further, the viability at 48 h, 3 µM in “in vitro” came to 97%. Besides, the AC50 in series [2] worked out at 841 nM.
Turning to `Oc1cc(Cc2ccccc2)cnc1CN1CCCCC1` [MLS000104838-01], the activity at 1 µM in series [1] (setting [3]) amounted to 128%; in series [1] (setting [4]), 110%. Besides, the activity at 3 µM is 97% in series [1] (setting [5]) and 103% in series [1] (setting [6]). Further, the viability at 48 h, 1 µM in the series “in vitro” was 98%. Moreover, the viability at 48 h, 3 µM in the series “in vitro” came to 105%. Besides, the AC50 in series [2] came to 944 nM.
Consider `COc1ccc(C)cc1N(C(=O)COc1cccc(F)c1)c1nc2ccccc2s1` [MLS000394477-01], for which the activity at 1 µM stood at 105% in series [1] (setting [3]) and 106% in series [1] (setting [4]). Moreover, the activity at 3 µM was determined as 107% in series [1] (setting [5]) and 110% in series [1] (setting [6]). The viability at 48 h, 1 µM in “in vitro” was determined as 91%. In “in vitro”, the viability at 48 h, 3 µM worked out at 106%. For the same molecule, the AC50 in series [2] was determined as 5960 nM.
On to `CCNc1nc(OC)nc(Oc2ccc(=O)n(-c3ccccc3)n2)n1` [MLS000034902-01], for which the figures for the activity at 1 µM in series [1] (setting [3]) and in series [1] (setting [4]) were 118% and 109%, respectively. For the same molecule, the figures for the activity at 3 µM in series [1] (setting [5]) and in series [1] (setting [6]) were 117% and 126%, respectively. The viability at 48 h, 1 µM in “in vitro” stood at 112%. Further, the viability at 48 h, 3 µM in the series “in vitro” worked out at 101%. Further, the half-maximal activity concentration (AC50) in series [2] came to 5960 nM.
Consider `COc1cc(O)c(C(CCN2CCN(c3ccccc3)CC2)c2cc(OC)c(OC)c(OC)c2)c(OC)c1` (stereo not drawn) [MLS000879517-01], for which the activity at 1 µM in series [1] (setting [3]) worked out at 87%; in series [1] (setting [4]), 82%. The activity at 3 µM in series [1] (setting [5]) was 84%; in series [1] (setting [6]) it was 91%. Moreover, the viability at 48 h, 1 µM in the series “in vitro” came out at 96%. Moreover, the viability at 48 h, 3 µM in “in vitro” is 102%. Also, in series [2], the AC50 came out at 1330 nM.
On to `C=C(C)COc1ccc(-c2ncnc(C(F)(F)F)c2-c2ccc(OC)cc2)c(O)c1` [MLS001216205-01], for which the activity at 1 µM in series [1] (setting [3]) stood at 120%; in series [1] (setting [4]), 94%. The activity at 3 µM in series [1] (setting [5]) was 111%; in series [1] (setting [6]), 99%. The viability at 48 h, 1 µM in the series “in vitro” is 89%. Moreover, the viability at 48 h, 3 µM in “in vitro” stood at 104%. The half-maximal activity concentration (AC50) in series [2] turned out to be 2990 nM.
Turning to `CN(CC(=O)Nc1cccc(F)c1)C(=O)c1ccc(-c2cccc(C(F)(F)F)c2)o1` [MLS001139679-01], the activity at 1 µM in series [1] (setting [3]) was 156%; in series [1] (setting [4]), 127%. Also, the activity at 3 µM in series [1] (setting [5]) is 81%; in series [1] (setting [6]) it was 96%. For the same molecule, the viability at 48 h, 1 µM in “in vitro” came to 103%. The viability at 48 h, 3 µM in “in vitro” is 99%. In addition, in series [2], the half-maximal activity concentration (AC50) is 668 nM.
